Measurements: US20200054651A1, “COMPOSITIONS AND METHODS FOR MODULATING PPP2R1A” (The Regents of the University of California, priority 2017, published 2020)

Columns and labels:
C377 of PPP2R1A = molecular target: T1, C377 of PPP2R1A (Homo sapiens, UniProt P30153); experiment: isoTOP-ABPP after in situ treatment of 231MFP cells; format: binding; conditions: 4 h in 231MFP cells in situ, IAyne labeling ex situ
T1 construct: pre-incubating withaferin A (10 μM) for 30 min in 231MFP breast cancer cell proteomes; endogenous in cells; host or cells: 231MFP breast cancer cells (MDA-MB-231 derived)
Description: IsoTOP-ABPP studies were performed using the methods described in “Nature 534(7608), 570-574 (2016)” by Backus K. M., et al. and “Nature 468(7325), 790-795 (2010)” by Weerapana E., et al. […] Then, IAyne (iodoacetamide-alkyne) labeling was performed for 1 hour at room temperature. CuAAC was used by sequential addition of tris(2-carboxyethyl)phosphine (1 mM), tris[(1-benzyl-1H-1,2,3-triazol-4-yl)methyl]amine (34 μM), copper (II) sulfate (1 mM), and biotin-linker-azide where the linker was functionalized with a TEV protease recognition sequence along with an isotopically light or heavy valine for treatment of control or treated proteome, respectively. After click reactions, proteomes were precipitated by centrifugation at 6500×g, washed in ice-cold methanol, combined in a 1:1 control/treated ratio, washed again, then denatured and re-solubilized by heating in 1.2% SDS/PBS to 80° C. for 5 minutes. Insoluble components were precipitated by centrifugation at 6500×g and soluble proteome was diluted in 0.2% SDS/PBS (5 ml). Labeled proteins were bound to avidin-agarose beads (170 μl re-suspended beads/sample) while rotating overnight at 4° C. Bead-linked proteins were enriched by washing three times each in PBS and water, then re-suspended in urea/PBS (6 M), reduced in TCEP (1 mM), alkylated with iodoacetamide (18 mM), then washed and re-suspended in urea/PBS (2 M), and finally trypsinized overnight with 0.5 μg/μl sequencing grade trypsin. Tryptic peptides were eluted off. Beads were washed in PBS (3 times) and water (3 times), washed in TEV buffer solution (water, TEV buffer, 100 μM dithiothreitol), and re-suspended in buffer with Ac-TEV protease and then incubated overnight. Peptides were diluted in water, acidified with formic acid (1.2 M), and prepared for analysis.
Peptides from all proteomic experiments were pressure-loaded onto an Agilent 600 series RP-HPLC system equipped with a capillary tubing (250 mm) packed with Aqua C18 reverse-phase resin (4 cm). The system was previously equilibrated with a gradient (0% B to 100% B over 10 minutes, 100% B for 5 minutes, then 0% B for 5 minutes; buffer A: 95:5 water:acetonitrile, 0.1% formic acid; buffer B: 80:20 acetonitrile:water, 0.1% formic acid). The samples were then attached using a MicroTee PEEK 360 μm fitting to a laser pulled column (13 cm) packed with Aqua C18 reverse-phase resin (10 cm) and strong-cation exchange resin (3 cm) for isoTOP-ABPP studies. Samples were analyzed using an Q Exactive Plus mass spectrometer using a 5-step Multidimensional Protein Identification Technology (MudPIT) program. The system was run using a gradient (5% B to 55% B; buffer A: 95:5 water:acetonitrile, 0.1% formic acid; buffer B: 80:20 acetonitrile:water, 0.1% formic acid), along with a salt bump feeding aqueous ammonium acetate (500 mM) at an increment of 0%, 25%, 50%, 80%, to 100%. Data was collected in data-dependent acquisition mode with dynamic exclusion enabled (60 sec). One full MS scan (400-1800 m/z) (MS1 scan) was conducted, followed by MS2 scan (ITMS) (15 times) of the most abundant ions. Heated capillary temperature was set to 200° C. and the nanospray voltage was set to 2.75 kV.
Data was extracted in the form of MS1 and MS2 files using Raw Extractor 1.9.9.2 and searched against the Uniprot […] database using ProLuCID search methodology in IP2 v.3, described in “J Proteomics 129:16-24 (2015)” by Xu T, et al. Cysteine residues were searched with a static modification for carboxyaminomethylation (+m/z 57.02146), up to two differential modifications for methionine oxidation, and either the light or heavy TEV tags (+m/z 464.28596 or +m/z 470.29977, respectively). Peptides were required to have at least one tryptic end and to contain the TEV modification. ProLUCID data was filtered through DTASelect to achieve a peptide false-positive rate below 1%. […]

[1] = system: phosphorylated AKT (p-AKT); experiment: Western blot of phosphorylated AKT in 231MFP cells; format: cell-based
Description: Antibodies to vinculin, phospho-Akt (Ser473), and Akt were obtained from a commercial source and proteomes were blotted per recommended manufacturer's' procedure. Cells were lysed in lysis buffer (containing the following: 20 mM Tris pH 7.5, 150 mM NaCl, 1 mM EDTA, 1 mM EGTA, 1% Triton X-100, 2.5 mM pyrophosphate, 50 mM NaF, 5 mM (3-glycero-phosphate, 1 mM Na3VO4, 50 nM calyculin A, and protease inhibitors). Lysate was incubated on a rotator at 4° C. for 30 min, and insoluble material was removed via centrifugation at a max speed for 10 minutes. Proteins were resolved by SDS/PAGE and transferred to nitrocellulose membranes using the iBlot system. Blots were blocked with 5% nonfat milk in Tris-buffered saline containing Tween 20 (TBST) solution for 1 hour at room temperature, washed in TBST, and probed with primary antibody diluted in a manufacturer recommended diluent overnight at 4° C. Following washes with TBST, the blots were incubated in the dark with secondary antibodies purchased from Rockland and used at 1:10 000 dilution in 5% nonfat milk in TBST at room temperature. Blots were visualized using an Odyssey Li-Cor scanner after additional washes.

T1 sequence (P30153 whole entry): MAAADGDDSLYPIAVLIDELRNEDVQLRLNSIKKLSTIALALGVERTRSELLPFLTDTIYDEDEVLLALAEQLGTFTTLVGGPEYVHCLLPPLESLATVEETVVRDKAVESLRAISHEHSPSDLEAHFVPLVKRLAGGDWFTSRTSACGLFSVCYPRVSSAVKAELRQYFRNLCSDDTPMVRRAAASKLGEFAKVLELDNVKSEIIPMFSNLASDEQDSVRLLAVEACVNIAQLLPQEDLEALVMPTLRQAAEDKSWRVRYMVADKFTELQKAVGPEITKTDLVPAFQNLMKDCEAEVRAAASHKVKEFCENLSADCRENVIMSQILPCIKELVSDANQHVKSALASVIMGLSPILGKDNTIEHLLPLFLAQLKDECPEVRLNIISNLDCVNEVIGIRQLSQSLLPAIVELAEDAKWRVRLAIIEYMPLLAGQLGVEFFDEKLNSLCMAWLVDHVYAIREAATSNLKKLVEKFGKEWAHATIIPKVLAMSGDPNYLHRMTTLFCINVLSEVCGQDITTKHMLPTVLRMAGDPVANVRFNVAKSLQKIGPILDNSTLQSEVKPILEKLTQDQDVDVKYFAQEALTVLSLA

Row | SMILES | isotopically light to heavy ratio, C377 of PPP2R1A (C377 of PPP2R1A; 10 μM) | phosphorylated AKT levels ([1]; 10 μM, 4 h) | phosphorylated AKT levels with cantharidin co-treatment ([1]; 10 μM, 4 h, co-treatment with cantharidin (10 μM, 4 h)) | isotopically light to heavy ratio, C377 of PPP2R1A (C377 of PPP2R1A; 100 μM) | phosphorylated AKT levels ([1]; 100 μM, 5 h)
1 | CC1=C(CO)C(=O)O[C@@H]([C@@H](C)[C@H]2CC[C@H]3[C@@H]4C[C@H]5O[C@]56[C@@H](O)C=CC(=O)[C@]6(C)[C@H]4CC[C@]23C)C1 [withaferin A, reference compound] | 4.0 | reduced phosphorylated AKT levels | rescued |  | 
2 | O=C(CCl)Nc1ccc2c(c1)OCCO2 [DKM 2-90, 2-Chloro-N-(2,3-dihydrobenzo[β][1,4]dioxin-6-yl)acetamide] |  |  |  | 5.9 | inhibit AKT signaling
3 | O=C(CCl)N(Cc1ccccc1)c1ccc2c(c1)OCCO2 [JNS 1-40, N-benzyl-2-chloro-N-(2,3-dihydrobenzo[b][1,4]dioxin-6-yl)acetamide] |  |  |  | > 5 | significantly reduced phosphorylated AKT levels
